Molecular target: T1, PGI2 receptor (Homo sapiens, UniProt P43119)
T1 construct: host or cells: thawed 'PGI2 cell' suspension
Assay: PGI2 cAMP cell assay in vitro (HTRF cAMP)
Type: cell-based
Conditions: cells in vitro
Method: PGI2 cAMP Cell Assay In Vitro:
A series of cells were placed in a 37° C. water bath for rapid thawing, and the cell suspension was transferred to a 15 mL centrifuge tube containing 10 mL HBSS, and mixed uniformly. The cells were centrifuged at 1000 rpm for 5 minutes at room temperature. The supernatant was removed after centrifugation.
The centrifuge tube was tapped gently to suspend the cells after centrifugation, then the cells were re-suspended with 10 mL HBSS (Hanks buffered saline solution) and mixed uniformly by pipetting up and down. The cells were counted by Vi-cell. The cells were centrifuged for the second time at 1000 rpm for 5 minutes. The cells were re-suspended by experimental buffer to reach a cell concentration of 1.5×10^5/mL.
The samples were diluted with the Bravo automated liquid handling platform to make the initial concentration of the sample reach 2 mM and 5-fold serial dilution at 10 points. The control sample was diluted with Bravo to make the initial concentration of the sample reach 2 mM and 5-fold serial dilution at 10 points.
50 nL DMSO or sample to be tested was transferred to PE384-well OptiPlate by Echo. The cell suspension was transferred to the testing plate by electric pipette, 10 μL cells/well. The testing plate was centrifuged at 1000 rpm […]. The testing plate was incubated at room temperature for 60 minutes. Two kinds of test reagents were added to the testing plate, 5 µL/well. The testing plate was centrifuged at 1000 rpm for 1 minute. The experimental plate was sealed with Top Seal-A film and incubated at room temperature for 60 minutes. TopSeal-A was removed and the value was read on EnVision.

T1 sequence (P43119 whole entry, species assumed): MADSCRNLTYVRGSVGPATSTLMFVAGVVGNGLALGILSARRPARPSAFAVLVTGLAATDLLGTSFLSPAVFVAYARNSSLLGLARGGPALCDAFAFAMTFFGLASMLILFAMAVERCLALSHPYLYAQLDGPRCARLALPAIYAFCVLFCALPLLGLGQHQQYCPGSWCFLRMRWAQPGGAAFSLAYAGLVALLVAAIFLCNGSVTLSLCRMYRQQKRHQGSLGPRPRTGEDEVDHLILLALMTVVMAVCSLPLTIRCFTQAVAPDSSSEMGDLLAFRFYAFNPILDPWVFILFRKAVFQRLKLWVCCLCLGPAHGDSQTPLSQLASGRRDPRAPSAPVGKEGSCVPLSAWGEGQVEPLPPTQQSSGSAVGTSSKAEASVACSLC

| EC50 [nM] | SMILES |
| --- | --- |
| 2.02 | O=C(O)COCC1CCN(c2cncc(N(c3ccccc3)c3ccc(Cl)cc3)n2)CC1 [Compound 1] |
| 2990 | O=C(O)COCC1CCN(c2nccc(N(c3ccccc3)c3ccc(Cl)cc3)n2)CC1 [Compound 2] |
| 2.09 | O=C(O)COCC1CCN(c2cncc(N(c3ccccc3)c3ccc(F)cc3)n2)CC1 [Compound 3] |
| 3.74 | COc1ccc(N(c2ccccc2)c2cncc(N3CCC(COCC(=O)O)CC3)n2)cc1 [Compound 5] |
| 123 | O=C(O)COCC1CCN(c2cncc(N(c3ccccc3)c3cc(F)cc(F)c3)n2)CC1 [Compound 11] |
| 4.17 | O=C(O)COCC1CCN(c2cncc(N(c3ccccc3)c3ccc(OC(F)F)cc3)n2)CC1 [Compound 13] |
| > 2000 | O=C(O)COCC1CCN(c2cccc(N(c3ccccc3)c3ccccc3)n2)CC1 [Compound 15] |
| 23.5 | O=C(O)COCC1CCN(c2ccnc(N(c3ccccc3)c3ccccc3)n2)CC1 [Compound 16] |
| 0.29 | O=C(O)COCC1(F)CCN(c2cncc(N(c3ccccc3)c3ccccc3)n2)CC1 [Compound 17] |
| 6.11 | CCOC(=O)COCC1(F)CCN(c2cncc(N(c3ccccc3)c3ccccc3)n2)CC1 [Compound 19] |
| 3 | O=C(O)COCC1(F)CCN(c2cncc(N(c3ccccc3)c3cccc(OC(F)F)c3)n2)CC1 [Compound 21] |
| 0.22 | O=C(O)COCC1(F)CCN(c2cncc(N(c3ccccc3)c3cccc(F)c3)n2)CC1 [Compound 22] |
| 0.41 | COc1cccc(N(c2ccccc2)c2cncc(N3CCC(F)(COCC(=O)O)CC3)n2)c1 [Compound 24] |
| 3.73 | O=C(O)COCC1(F)CCN(c2cncc(N(c3ccccc3)c3ccc(OC(F)(F)F)cc3)n2)CC1 [Compound 26] |
| 6.74 | O=C(O)COCC1(F)CCN(c2cncc(N(c3cccc(F)c3)c3ccccn3)n2)CC1 [Compound 27] |
| 4.19 | COc1cccc(N(c2ccc(F)cn2)c2cncc(N3CCC(F)(COCC(=O)O)CC3)n2)c1 [Compound 29] |
| 1.41 | O=C(O)COCC1(F)CCN(c2cncc(N(c3ccccc3)c3ccc(F)cn3)n2)CC1 [Compound 32] |
| 1.9 | COc1ccc(N(c2ccccc2)c2cncc(N3CCC(F)(COCC(=O)O)CC3)n2)nc1 [Compound 34] |
| 4.97 | CS(=O)(=O)NC(=O)COCC1(F)CCN(c2cncc(N(c3ccccc3)c3ccc(F)cc3)n2)CC1 [Compound 36] |
| 34.2 | O=C(O)COCC1(F)CCN(c2cncc(N(c3ccccc3)C3CCCCC3)n2)CC1 [Compound 37] |
| 459 | COc1ccc(N(c2ccc(Cl)cc2)c2cncc(N3CCC(F)(COCC(=O)O)CC3)n2)nc1 [Compound 38] |
| 1.55 | Cc1ccc(N(c2ccccc2)c2cncc(N3CCC(F)(COCC(=O)O)CC3)n2)nc1 [Compound 45] |
| 20.1 | O=C(O)COCC1(F)CCN(c2cncc(N(c3ccccc3)c3nccs3)n2)CC1 [Compound 46] |
| 3.72 | O=C(O)COC[C@H]1CC[C@H](c2cncc(N(c3ccccc3)c3ccccc3)n2)CC1 [Compound 48b] |

Continued, compound first:

| SMILES | EC50 [nM] |
| --- | --- |
| O=C(O)COCC1CCN(c2cncc(N(c3ccccc3)c3ccccc3)n2)CC1 [Compound 4] | 2.99 |
| O=C(O)COCC1CCN(c2cncc(N(c3ccccc3)c3ccc(OC(F)(F)F)cc3)n2)CC1 [Compound 6] | 3.55 |
| COc1cccc(N(c2ccccc2)c2cncc(N3CCC(COCC(=O)O)CC3)n2)c1 [Compound 7] | 2.12 |
| O=C(O)COCC1CCN(c2cncc(N(c3ccccc3)c3cccc(OC(F)(F)F)c3)n2)CC1 [Compound 8] | 38 |
| O=C(O)COCC1CCN(c2cncc(N(c3ccccc3)c3cccc(F)c3)n2)CC1 [Compound 9] | 12.8 |
| O=C(O)COCC1CCN(c2cncc(N(c3ccccc3)c3ccc(F)c(F)c3)n2)CC1 [Compound 10] | 10.2 |
| O=C(O)COCC1CCN(c2cncc(N(c3ccccc3)c3cccc(Cl)c3)n2)CC1 [Compound 12] | 4.84 |
| O=C(O)COCC1CCN(c2cncc(N(c3ccccc3)c3cccc(OC(F)F)c3)n2)CC1 [Compound 14] | 9.65 |
| CS(=O)(=O)NC(=O)COCC1(F)CCN(c2cncc(N(c3ccccc3)c3ccccc3)n2)CC1 [Compound 18] | 79.9 |
| O=C(O)COCC1(F)CCN(c2cncc(N(c3ccccc3)c3ccc(OC(F)F)cc3)n2)CC1 [Compound 20] | 1.65 |
| COc1ccc(N(c2ccccc2)c2cncc(N3CCC(F)(COCC(=O)O)CC3)n2)cc1 [Compound 23] | 1.1 |
| O=C(O)COCC1(F)CCN(c2cncc(N(c3ccccc3)c3ccc(Cl)cc3)n2)CC1 [Compound 25] | 0.8 |
| O=C(O)COCC1(F)CCN(c2cncc(N(c3cccc(Cl)c3)c3ccccn3)n2)CC1 [Compound 28] | 2.17 |
| O=C(O)COCC1(F)CCN(c2cncc(N(c3ccccc3)c3ccccn3)n2)CC1 [Compound 30] | 3.26 |
| O=C(O)COCC1(F)CCN(c2cncc(N(c3ccccc3)c3cccc(F)n3)n2)CC1 [Compound 31] | 1.61 |
| CS(=O)(=O)NC(=O)COCC1(F)CCN(c2cncc(N(c3ccccc3)c3ccc(F)cn3)n2)CC1 [Compound 33] | 118 |
| O=C(O)COCC1(F)CCN(c2cncc(N(c3ccccc3)c3ccc(F)cc3)n2)CC1 [Compound 35] | 0.43 |
| O=C(O)COCC1(F)CCN(c2cncc(N(c3ccc(Cl)cc3)c3ccc(F)cn3)n2)CC1 [Compound 39] | > 300 |
| O=C(O)COCC1(F)CCN(c2cncc(N(c3ccc(F)cc3)c3ccccn3)n2)CC1 [Compound 40] | 3.2 |
| O=C(O)COCC1(F)CCN(c2cncc(N(c3ccc(Cl)cc3)c3ccccn3)n2)CC1 [Compound 41] | 2.94 |
| COc1ccc(N(c2ccccn2)c2cncc(N3CCC(F)(COCC(=O)O)CC3)n2)cc1 [Compound 42] | 2.63 |
| O=C(O)COCC1(F)CCN(c2cncc(N(c3ccccc3)c3ccc(Cl)cn3)n2)CC1 [Compound 43] | 1.07 |
| O=C(O)COCC1(F)CCN(c2cncc(N(c3ccccc3)c3cc(Cl)ccn3)n2)CC1 [Compound 44] | 1.98 |
| O=C(O)COCC1CC=C(c2cncc(N(c3ccccc3)c3ccc(Cl)cc3)n2)CC1 (stereo not shown) [Compound 47] | 40.1 |
| O=C(O)COC[C@H]1CC[C@@H](c2cncc(N(c3ccccc3)c3ccccc3)n2)CC1 [Compound 48a] | 18 |
| O=C(O)COCC1(F)CCN(c2cncc(C(O)(c3ccccc3)c3ccccc3)n2)CC1 [Compound 49] | 81 |
| O=C(O)COCC1(F)CCN(c2cncc(C(c3ccccc3)c3ccccc3)n2)CC1 [Compound 50] | 5.36 |
| COC(c1ccccc1)(c1ccccc1)c1cncc(N2CCC(F)(COCC(=O)O)CC2)n1 [Compound 51] | 322 |
